Data: US12509451B2, “Heteroaryl amide inhibitors of CD38” (NAPA THERAPEUTICS LTD., priority 2020, dated 2025)

Tests used:
CD38 [1] = biological target: T1, CD38 (Mus musculus, UniProt P56528); experiment: In vivo efficacy against CD38 in obese mice, chronic oral administration 49 days, liver NAD+ metabolites; conditions: 10 mg/kg BID oral, 4 hr post-dosing
T1 construct: aged mice (male C57BL6/J, 22 months old) were fasted for 4 hr; from tissue; host or cells: C57BL6/J mice (aged, DIO obese or LPS-challenged); liver, spleen, plasma
T1 sequence (P56528 1-304): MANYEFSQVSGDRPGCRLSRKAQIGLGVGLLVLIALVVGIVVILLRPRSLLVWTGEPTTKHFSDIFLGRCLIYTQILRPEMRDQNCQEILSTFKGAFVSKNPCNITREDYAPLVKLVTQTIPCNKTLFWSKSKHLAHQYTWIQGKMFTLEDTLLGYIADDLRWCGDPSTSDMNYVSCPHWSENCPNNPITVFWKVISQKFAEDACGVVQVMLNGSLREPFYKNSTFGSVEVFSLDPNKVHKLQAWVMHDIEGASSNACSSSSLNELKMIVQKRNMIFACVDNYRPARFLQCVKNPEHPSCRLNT
Method: (§1) The in vivo efficacy of Compound 32 against the human CD38 enzyme was tested in obese mice after oral administration and determined by mass spec (MS) analysis of NAD+ metabolites levels in liver tissue. The two main CD38 substrates, NAD+ and NMN, and the 2 main byproducts of the CD38 enzymatic reaction, NAM and ADPR, were measured.
(§2) Obese mice (male DIO C57BL6/J, 65 weeks old) treated for 49 days with compound 32 via oral gavage at a concentration of 10 mg/kg BID. On day 49, mice were humanely euthanized for liver tissue harvesting at 4 hr post-dosing. A vehicle control (1% Methylcellulose) was included to assess baseline NAD+ metabolites levels.
(§3) The procedure for tissue sample preparation and UPLC-MS/MS methods were adapted from Trammell et al. (2013) Compu. Struct. Biotechnol. J. […] (https://www.ncbi.nlm.nih.gov/pmc/articles/PMC3962138/). Frozen liver tissue was pulverized and resuspended in the extraction buffer (3:1 ethanol:10 mM aq. HEPES, pH 7.1). The samples were vortexed, sonicated briefly in a bath sonicator, and shaken at 55° C. for 3 min at 1,200 rpm. Samples were then centrifuged at 16,000×g for 10 min at 4° C., and the supernatant was dried by speedvac. The dried pellet was resuspended in 97% 10 mM ammonium acetate/3% acetonitrile, centrifuged at 16,000×g for 10 min at 4° C. and 2 μL was injected for LCMS analysis.
(§4) The UPLC-MS/MS analysis to measure NAD+ metabolites was performed using a Vanquish UHPLC system and a Q Exactive Orbitrap mass spectrometer with H-ESI ion source both from Thermo Scientific. UPLC separation was performed on a Hypercarb (2.1×100 mm, 5 μm particle size, Thermo) column following the method described in Trammell et al. (2013). Acquisition was carried out in positive ion, Parallel Reaction Monitoring (PRM) mode and targeted […] (t-SIM). The Thermo Xcalibur QualBrowser system (version 4.2.47) and Freestyle (version 1.8.51.0) softwares was used for the data processing. For relative fold change, peak areas were normalized with respective internal standards, normalized to weight of the tissue sample used, and calculated as fold change relative at 0 h timepoint/vehicle group.
as §1, with “39” for “32”, “spec” for “spec (MS)”
as §2, with “39” for “32”

CD38 [2] = biological target: T1, CD38; experiment: In vivo efficacy against CD38 in aged mice, BID for 5 days, liver NAD+ metabolites; conditions: 3 hr post-dosing
Method: as §1, with “aged” for “obese”
(§5) Compound 32 was administered to aged mice (male DIO C57BL6/J, 19-22 months old) via oral gavage at a concentration of 3 mg/kg and 10 mg/kg BID for 5 days. At day 5, mice were humanely euthanized for liver tissue harvesting 3 hr post-dosing. A vehicle control (DMSO: Solutol HS 15: 80% Captisol (20% in water)(5:15:80 v/v)) was included to assess baseline NAD+ metabolites levels.
as §3, §4
as §1, with “39” for “32”, “aged” for “obese”, “spec” for “spec (MS)”
as §5, with “39” for “32”, “of” for “of 3 mg/kg and”

ADPR levels in liver (CD38 [1]) | NAM levels in liver (CD38 [1]) | ADPR levels in liver (CD38 [2]; 3 mg/kg and 10 mg/kg BID oral) | NAD+ levels in liver (CD38 [2]; 3 mg/kg and 10 mg/kg BID oral) | NAM levels in liver (CD38 [2]; 3 mg/kg and 10 mg/kg BID oral) | NMN levels in liver (CD38 [2]; 3 mg/kg and 10 mg/kg BID oral) | NAD+ levels in liver (CD38 [1]) | NMN levels in liver (CD38 [1]) | ADPR levels in liver (CD38 [2]; 10 mg/kg BID oral) | NAD+ levels in liver (CD38 [2]; 10 mg/kg BID oral) | NAM levels in liver (CD38 [2]; 10 mg/kg BID oral) | SMILES
significantly decrease | significantly decrease | decrease | significantly increase | decrease | significantly increase | – | – | – | – | – | O=C(Nc1ccnc(C(F)(F)F)c1)c1cc(OC2CC2)cc(-n2ccnc2)n1 [Compound 32, 4-cyclopropoxy-6-(1H-imidazol-1-yl)-N-(2-(trifluoromethyl)pyridin-4-yl)picolinamide]
decrease | decrease | – | – | – | – | significantly increase | significantly increase | decrease | increase | decrease | COCCOc1cc(C(=O)Nc2ccnc(C(F)(F)F)c2)nc(-n2ccnc2)n1 [Compound 39, 2-(1H-imidazol-1-yl)-6-(2-methoxyethoxy)-N-(2-(trifluoromethyl)pyridin-4-yl)pyrimidine-4-carboxamide]
